Consider 18 compounds from patent publication US12398107B2, “Fungicidal nitroanilino substituted pyrazoles” (FMC Corporation, priority 2018, dated 2025).

Common to all, as to type: in vivo
For one assay, the system named is Botrytis cinerea. The assay can be described thus: Test E: tomato Botrytis, preventive spray on tomato seedlings. The conditions noted are these: 50 ppm, 100 = 100% disease control, 0 = no control. In short, it runs like this: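 Tomato seedlings sprayed to run-off with compound (ppm) in acetone/water with 250 ppm PEG400, then inoculated next day with B. cinerea spores. Held 48 h at 20 °C in saturated atmosphere, then 3 days at 24 °C. Visual rating 0–100% disease control relative to untreated controls.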

The test system of assay [1] is Blumeria graminis f. sp. tritici. Nature of the assay: Test C: wheat powdery mildew, preventive spray on wheat seedlings. The conditions noted are these: 50 ppm, rated after 8 days, 100 = 100% disease control, 0 = no control. The procedure, abridged:
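Compound dissolved in acetone (3% of final volume), then suspended in 50/50 acetone/water with 250 ppm PEG400 and sprayed to run-off on wheat seedlings. Inoculated next day with B. graminis f. sp. tritici spore dust, kept 8 days at 20° C; visual rating, 100 = full control, 0 = none, relative to controls.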

In a further assay the test system is Alternaria solani. The assay can be described thus: Test F: tomato early blight, preventive spray on tomato seedlings. The conditions noted are these: 50 ppm, 100 = 100% disease control, 0 = no control. The procedure, abridged:
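Compounds in acetone/water (50/50) with 250 ppm PEG400, dosed in ppm, sprayed to run-off on tomato seedlings; next day inoculated with A. solani spores. Held 48 h saturated at 27° C, then 3 days at 20° C; visual rating 0–100% disease control relative to controls.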

The next assay deals with Septoria tritici. The assay can be described thus: Test A: wheat leaf blotch, preventive spray on wheat seedlings. The conditions noted are these: 50 ppm, 100 = 100% disease control, 0 = no control relative to controls. In short, it runs like this:
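Compounds were suspended in acetone/water (50/50) with 250 ppm PEG400 and sprayed to run-off on wheat seedlings. The next day the seedlings were inoculated with Septoria tritici spores, held 48 h at 24 °C in saturated humidity, then 17 days at 20 °C. Disease control was rated 0–100 relative to controls.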

Assay [2] concerns Puccinia recondita f. sp. tritici. The assay can be described thus: Test B: wheat leaf rust, preventive spray on wheat seedlings. The conditions noted are these: 50 ppm, 100 = 100% disease control, 0 = no control relative to controls. In short, it runs like this: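 Compounds in acetone/water (50/50) with 250 ppm PEG400, sprayed to run-off on wheat seedlings at stated ppm; inoculated next day with P. recondita spores. Held 24 h saturated at 20° C., then 7 days in growth chamber at 20° C.; rating 0–100 = % disease control vs controls.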

For a further assay, the system named is Phakopsora pachyrhizi. The assay can be described thus: Test D: Asian soybean rust, preventive spray on soybean seedlings. The conditions noted are these: 50 ppm, 100 = 100% disease control, 0 = no control. In short, it runs like this: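 Soybean seedlings sprayed to run-off with compound suspension (ppm, in 50/50 acetone/water with 250 ppm PEG400), inoculated next day with P. pachyrhizi spores, held 24 h saturated at 22°C then 8 days at 22°C. Visual rating 0-100% disease control relative to controls.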

In the case of `Cc1nn(C)c(Nc2c(Cl)cccc2[N+](=O)[O-])c1-c1ccc(Cl)cc1Cl` [Compound 133], in the assay with Botrytis cinerea, the “Test E disease control rating (tomato Botrytis)” value (“Test E disease control rating” for short) came out at 97%. Besides, the “Test C disease control rating (wheat powdery mildew)” value (“Test C disease control rating” for short) in assay [1] amounted to 0%. Also, in the assay on Alternaria solani, the “Test F disease control rating (tomato early blight)” value (“Test F disease control rating” below) was 0%. In the assay on Septoria tritici, the “Test A disease control rating (wheat leaf blotch)” value (“Test A disease control rating” below) amounted to 100%. Moreover, the “Test B disease control rating (wheat leaf rust)” value (from here on “Test B disease control rating”) in assay [2] is listed as 86%. In addition, the “Test D disease control rating (Asian soybean rust)” value (“Test D disease control rating” for short) with Phakopsora pachyrhizi came out at 0%.
`Cc1nn(C)c(Nc2ccccc2[N+](=O)[O-])c1-c1ccc(C#N)cc1F` [Compound 134]: the “Test E disease control rating” value in the assay with Botrytis cinerea came out at 70%. For the same compound, the “Test C disease control rating” value in assay [1] is 71%. In the assay on Alternaria solani, the “Test F disease control rating” value was found to be 0%. For the same compound, the “Test A disease control rating” value with Septoria tritici came out at 100%. For the same compound, the “Test B disease control rating” value in assay [2] is on record as 23%. In addition, the “Test D disease control rating” value in the assay with Phakopsora pachyrhizi turned out to be 0%.
Consider `Cc1nn(C)c(Nc2ccccc2[N+](=O)[O-])c1-c1c(F)cccc1F` [Compound 135], for which the “Test E disease control rating” value in the assay on Botrytis cinerea was determined as 99%. For the same compound, in assay [1], the “Test C disease control rating” value is recorded as 93%. Further, in the assay on Alternaria solani, the “Test F disease control rating” value came out at 0%. In addition, the “Test A disease control rating” value in the assay with Septoria tritici came out at 100%. In addition, the “Test B disease control rating” value in assay [2] is 68%. For the same compound, the “Test D disease control rating” value in the assay on Phakopsora pachyrhizi is given as 0%.
On to `Cc1nn(C)c(Nc2ccccc2[N+](=O)[O-])c1-c1c(F)cccc1Cl` [Compound 136], for which, in the assay on Botrytis cinerea, the “Test E disease control rating” value is given as 99%. Moreover, the “Test C disease control rating” value in assay [1] amounted to 88%. Further, the “Test F disease control rating” value in the assay with Alternaria solani came to 0%. In the assay with Septoria tritici, the “Test A disease control rating” value worked out at 100%. Also, the “Test B disease control rating” value in assay [2] came out at 80%. In addition, the “Test D disease control rating” value with Phakopsora pachyrhizi is 0%.
In the case of `CCc1nn(C)c(Nc2c(F)cc(C)cc2[N+](=O)[O-])c1-c1ccc(F)cc1Cl` [Compound 137], in the assay on Botrytis cinerea, the “Test E disease control rating” value stood at 99%. Also, the “Test C disease control rating” value in assay [1] came out at 100%. For the same compound, the “Test F disease control rating” value in the assay with Alternaria solani is 99%. In addition, in the assay with Septoria tritici, the “Test A disease control rating” value amounted to 100%. Also, the “Test B disease control rating” value in assay [2] amounted to 100%. In addition, in the assay on Phakopsora pachyrhizi, the “Test D disease control rating” value was 91%.
Take `COc1cc(F)c(Nc2c(-c3ccc(Cl)cc3Cl)c(C)nn2C)c([N+](=O)[O-])c1` [Compound 138]: the “Test E disease control rating” value in the assay on Botrytis cinerea is recorded as 99%. Besides, in assay [1], the “Test C disease control rating” value is 93%. Further, in the assay with Alternaria solani, the “Test F disease control rating” value stood at 100%. Moreover, the “Test A disease control rating” value with Septoria tritici came to 100%. The “Test B disease control rating” value in assay [2] is 100%. In addition, the “Test D disease control rating” value with Phakopsora pachyrhizi amounted to 67%.
Consider `Cc1nn(C)c(Nc2ccccc2[N+](=O)[O-])c1-c1ccc(F)cc1Br` [Compound 139], for which the “Test E disease control rating” value in the assay with Botrytis cinerea is given as 100%. In assay [1], the “Test C disease control rating” value is 76%. In the assay on Alternaria solani, the “Test F disease control rating” value was determined as 33%. Also, the “Test A disease control rating” value with Septoria tritici is listed as 98%. In addition, the “Test B disease control rating” value in assay [2] amounted to 86%. Moreover, the “Test D disease control rating” value with Phakopsora pachyrhizi came out at 0%.
As for `COc1ccc(-c2c(C)nn(C)c2Nc2ccccc2[N+](=O)[O-])c(Cl)c1` [Compound 140], in the assay with Botrytis cinerea, the “Test E disease control rating” value stood at 100%. In assay [1], the “Test C disease control rating” value came to 31%. For the same compound, in the assay on Alternaria solani, the “Test F disease control rating” value is reported as 93%. In addition, the “Test A disease control rating” value in the assay with Septoria tritici was found to be 99%. The “Test B disease control rating” value in assay [2] is given as 86%. Moreover, in the assay with Phakopsora pachyrhizi, the “Test D disease control rating” value came to 0%.
Consider `COc1cc(Cl)c(Nc2c(-c3ccc(F)cc3F)c(C)nn2C)c([N+](=O)[O-])c1` [Compound 141], for which the “Test E disease control rating” value in the assay on Botrytis cinerea is listed as 99%. Moreover, the “Test C disease control rating” value in assay [1] is 99%. Further, the “Test F disease control rating” value in the assay on Alternaria solani was determined as 83%. In addition, the “Test A disease control rating” value with Septoria tritici was 99%. The “Test B disease control rating” value in assay [2] is recorded as 100%. For the same compound, the “Test D disease control rating” value in the assay with Phakopsora pachyrhizi was 0%.
Regarding `COc1ccc(Nc2c(-c3ccc(Cl)cc3Cl)c(C)nn2C)c([N+](=O)[O-])c1` [Compound 142], the “Test E disease control rating” value in the assay with Botrytis cinerea turned out to be 99%. Also, the “Test C disease control rating” value in assay [1] was 39%. The “Test F disease control rating” value in the assay with Alternaria solani is listed as 80%. Further, the “Test A disease control rating” value in the assay on Septoria tritici was 100%. Moreover, the “Test B disease control rating” value in assay [2] came to 91%. The “Test D disease control rating” value in the assay with Phakopsora pachyrhizi worked out at 25%.
Consider `Cc1cc(F)c(Nc2c(-c3ccc(Cl)cc3Cl)c(C)nn2C)c([N+](=O)[O-])c1` [Compound 143], for which, in the assay on Botrytis cinerea, the “Test E disease control rating” value is 99%. Further, the “Test C disease control rating” value in assay [1] was determined as 96%. The “Test F disease control rating” value with Alternaria solani amounted to 100%. Moreover, the “Test A disease control rating” value with Septoria tritici is listed as 99%. The “Test B disease control rating” value in assay [2] was 100%. In the assay on Phakopsora pachyrhizi, the “Test D disease control rating” value was 87%.
For `Cc1cccc([N+](=O)[O-])c1Nc1c(-c2ccc(Cl)cc2Cl)c(C)nn1C` [Compound 144], the “Test E disease control rating” value in the assay on Botrytis cinerea turned out to be 0%. Besides, in assay [1], the “Test C disease control rating” value is given as 35%. Moreover, the “Test F disease control rating” value in the assay on Alternaria solani stood at 0%. Besides, the “Test A disease control rating” value with Septoria tritici was determined as 100%. Besides, in assay [2], the “Test B disease control rating” value is reported as 68%. Besides, in the assay with Phakopsora pachyrhizi, the “Test D disease control rating” value worked out at 69%.
Regarding `Cc1cc(Cl)c(Nc2c(-c3ccc(Cl)cc3Cl)c(C)nn2C)c([N+](=O)[O-])c1` [Compound 145], the “Test E disease control rating” value with Botrytis cinerea amounted to 85%. Moreover, the “Test C disease control rating” value in assay [1] turned out to be 52%. In addition, the “Test F disease control rating” value in the assay on Alternaria solani came to 24%. Moreover, in the assay on Septoria tritici, the “Test A disease control rating” value is given as 98%. Besides, the “Test B disease control rating” value in assay [2] came to 92%. For the same compound, the “Test D disease control rating” value in the assay with Phakopsora pachyrhizi is on record as 0%.
On to `Cc1nn(C)c(Nc2c(Cl)cc(Cl)cc2[N+](=O)[O-])c1-c1ccc(Cl)cc1Cl` [Compound 146], for which, in the assay with Botrytis cinerea, the “Test E disease control rating” value is reported as 0%. For the same compound, the “Test C disease control rating” value in assay [1] is on record as 0%. Moreover, in the assay with Alternaria solani, the “Test F disease control rating” value was 40%. Moreover, the “Test A disease control rating” value in the assay on Septoria tritici came to 97%. The “Test B disease control rating” value in assay [2] worked out at 98%. In addition, in the assay with Phakopsora pachyrhizi, the “Test D disease control rating” value was determined as 0%.
On to `COc1cc(F)c(-c2c(C)nn(C)c2Nc2ccccc2[N+](=O)[O-])c(F)c1` [Compound 147], for which the “Test E disease control rating” value in the assay on Botrytis cinerea is 100%. Further, in assay [1], the “Test C disease control rating” value is on record as 97%. For the same compound, the “Test F disease control rating” value in the assay with Alternaria solani was 99%. In addition, the “Test A disease control rating” value in the assay on Septoria tritici stood at 96%. In addition, the “Test B disease control rating” value in assay [2] was 86%. Also, the “Test D disease control rating” value with Phakopsora pachyrhizi was determined as 0%.
For `Cc1nn(C)c(Nc2ccccc2[N+](=O)[O-])c1-c1c(F)cc(F)cc1Cl` [Compound 148], the “Test E disease control rating” value in the assay with Botrytis cinerea worked out at 99%. In assay [1], the “Test C disease control rating” value was 98%. Further, the “Test F disease control rating” value in the assay with Alternaria solani is on record as 100%. Moreover, the “Test A disease control rating” value with Septoria tritici came out at 100%. The “Test B disease control rating” value in assay [2] came to 99%. Further, the “Test D disease control rating” value in the assay on Phakopsora pachyrhizi is listed as 13%.
As to `Cc1nn(C)c(Nc2ccccc2[N+](=O)[O-])c1-c1c(F)cc(F)cc1F` [Compound 149], the “Test E disease control rating” value in the assay with Botrytis cinerea amounted to 99%. For the same compound, the “Test C disease control rating” value in assay [1] turned out to be 97%. In the assay with Alternaria solani, the “Test F disease control rating” value turned out to be 96%. For the same compound, the “Test A disease control rating” value in the assay with Septoria tritici is given as 100%. Further, the “Test B disease control rating” value in assay [2] is recorded as 80%. For the same compound, in the assay on Phakopsora pachyrhizi, the “Test D disease control rating” value was found to be 0%.
As for `COc1ccc(Nc2c(-c3c(F)cc(C#N)cc3F)c(C)nn2C)c([N+](=O)[O-])c1` [Compound 150], in the assay with Botrytis cinerea, the “Test E disease control rating” value came out at 100%. For the same compound, the “Test C disease control rating” value in assay [1] came to 98%. In addition, in the assay with Alternaria solani, the “Test F disease control rating” value is given as 99%. Also, the “Test A disease control rating” value with Septoria tritici is 100%. The “Test B disease control rating” value in assay [2] came out at 100%. Moreover, the “Test D disease control rating” value in the assay with Phakopsora pachyrhizi was 13%.
